Test results published in paper PMC10946451, “Engineering a Carboxyl Methyltransferase for the Formation of a Furan‐Based Bioplastic Precursor” (Chemsuschem, 2023).

Biological target: T1, FtpM (WT FtpM) (Aspergillus fumigatus, UniProt Q4WZ45)
T1 construct: gene AFUA_3G15280; codon-optimised gene in pET-based golden gate vector, C-terminal His tag, expressed in E. coli, HisTrap purified; monomer and dimer modelled by AlphaFold 2
T1 sequence (Q4WZ45 1-282): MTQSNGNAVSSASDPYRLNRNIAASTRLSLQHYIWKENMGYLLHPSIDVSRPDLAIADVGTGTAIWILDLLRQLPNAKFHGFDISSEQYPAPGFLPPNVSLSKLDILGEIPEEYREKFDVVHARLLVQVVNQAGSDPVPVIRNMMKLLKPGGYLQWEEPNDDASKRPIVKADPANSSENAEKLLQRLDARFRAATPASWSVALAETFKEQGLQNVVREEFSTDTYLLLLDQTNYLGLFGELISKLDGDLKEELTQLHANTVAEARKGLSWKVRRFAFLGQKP
Experiment: steady-state kinetics of carboxyl methylation (Michaelis-Menten; previously reported method)
Format: biochemical
Details: co-substrate SAM, kinetic assay conditions not printed (reactions: 50 mM MES pH 6.0, 25 °C)

For COC(=O)c1ccc(C(=O)O)o1 [compound 3, FMME], which Km (second methylation) is on record?
Its Km is 1400 µM.

O=C(O)c1ccc(C(=O)O)o1 [compound 2, 2,5-furandicarboxylic acid] was tested. Which Km (first methylation) did it give?
Its Km is 520 µM.
